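Tested at 5 concentrations; 48 h exposure; 96-well plates; endpoints linearly interpolated, else capped at highest concentration. Abbreviation: GI50, concentration required for 50% inhibition of growth.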 The source made the active and inactive calls. Cut-off read from the data, not from the text of the source: active = GI50 up to about 1.1 µM and inactive = higher.
Tests used:
Test in all cases: NCI anticancer screen, dose series, 48 h
OVCAR-8 = test system: OVCAR-8
SR = test system: SR
NCI-H23 = test system: NCI-H23
SK-OV-3 = test system: SK-OV-3
CCRF-CEM = test system: CCRF-CEM
HCT-15 = test system: HCT-15
OVCAR-3 = test system: OVCAR-3
T47D = test system: T47D
K562 = test system: K562
Malme-3M = test system: Malme-3M
EKVX = test system: EKVX
HCT-116 = test system: HCT-116
SF-295 = test system: SF-295
786-0 = test system: 786-0
Hs-578T = test system: Hs-578T
HOP-92 = test system: HOP-92
LOX IMVI = test system: LOX IMVI
NCI/ADR-RES = test system: NCI/ADR-RES
MOLT-4 = test system: MOLT-4
SN12C = test system: SN12C
M14 = test system: M14
SK-MEL-28 = test system: SK-MEL-28
A498 = test system: A498
NCI-H522 = test system: NCI-H522
SNB-75 = test system: SNB-75
RPMI-8226 = test system: RPMI-8226
A549 = test system: A549
SNB-19 = test system: SNB-19
SK-MEL-5 = test system: SK-MEL-5
DU-145 = test system: DU-145
SF-268 = test system: SF-268
ACHN = test system: ACHN
KM12 = test system: KM12
OVCAR-4 = test system: OVCAR-4
UO-31 = test system: UO-31
CAKI-1 = test system: CAKI-1
COLO 205 = test system: COLO 205
MDA-MB-231 = test system: MDA-MB-231
TK-10 = test system: TK-10
RXF 393 = test system: RXF 393
UACC-62 = test system: UACC-62
PC-3 = test system: PC-3
SK-MEL-2 = test system: SK-MEL-2
MCF7 = test system: MCF7
HT-29 = test system: HT-29
HCC 2998 = test system: HCC 2998
MDA-N = test system: MDA-N
U-251 = test system: U-251
OVCAR-5 = test system: OVCAR-5
SW-620 = test system: SW-620
NCI-H460 = test system: NCI-H460
BT-549 = test system: BT-549
UACC-257 = test system: UACC-257
HOP-62 = test system: HOP-62
MDA-MB-435 = test system: MDA-MB-435
IGROV-1 = test system: IGROV-1
NCI-H226 = test system: NCI-H226

With `Cc1sc2nc3n(c(=O)c2c1C)N=CN(c1ccc(F)cc1)C3` the GI50 (OVCAR-8) was 65.6 µM (inactive), the GI50 (SR) was > 100 µM (inactive) and the GI50 (NCI-H23) was > 100 µM (inactive). The GI50 (SK-OV-3) was 52 µM (inactive), the GI50 (CCRF-CEM) was > 100 µM (inactive) and the GI50 (HCT-15) was over 100 µM. For the same molecule, the GI50 (OVCAR-3) was > 100 µM (inactive), the GI50 (T47D) was > 100 µM (inactive) and the GI50 (K562) was > 100 µM (inactive). The GI50 (Malme-3M) was 25 µM (inactive), the GI50 (EKVX) was > 100 µM (inactive) and the GI50 (HCT-116) was 23.8 µM (inactive). The GI50 (SF-295) was 72.9 µM (inactive), the GI50 (786-0) was 19.5 µM (inactive) and the GI50 (Hs-578T) was 22.4 µM (inactive). The GI50 (HOP-92) was 24.2 µM (inactive), the GI50 (LOX IMVI) was > 100 µM (inactive) and the GI50 (NCI/ADR-RES) was > 100 µM (inactive). The GI50 (MOLT-4) was > 100 µM (inactive), the GI50 (SN12C) was 32.9 µM (inactive) and the GI50 (M14) was > 100 µM (inactive). For the same molecule, the GI50 (SK-MEL-28) was > 100 µM (inactive), the GI50 (A498) was 26.9 µM (inactive) and the GI50 (NCI-H522) was 69.3 µM (inactive). For the same molecule, the GI50 (SNB-75) was 42.4 µM (inactive), the GI50 (RPMI-8226) was > 100 µM (inactive) and the GI50 (A549) was 43.9 µM (inactive). The GI50 (SNB-19) was 38 µM (inactive), the GI50 (SK-MEL-5) was > 100 µM (inactive) and the GI50 (DU-145) was > 100 µM (inactive). For the same molecule, the GI50 (SF-268) was 81.7 µM (inactive), the GI50 (ACHN) was 29 µM (inactive) and the GI50 (KM12) was > 100 µM (inactive). The GI50 (OVCAR-4) was 18.7 µM (inactive), the GI50 (UO-31) was > 100 µM (inactive) and the GI50 (CAKI-1) was > 100 µM (inactive). For the same molecule, the GI50 (COLO 205) was > 100 µM (inactive), the GI50 (MDA-MB-231) was 59 µM (inactive) and the GI50 (TK-10) was > 100 µM (inactive). For the same molecule, the GI50 (RXF 393) was > 100 µM (inactive), the GI50 (UACC-62) was > 100 µM (inactive) and the GI50 (PC-3) was > 100 µM (inactive). For the same molecule, the GI50 (SK-MEL-2) was > 100 µM (inactive), the GI50 (MCF7) was > 100 µM (inactive) and the GI50 (HT-29) was > 100 µM (inactive). For the same molecule, the GI50 (HCC 2998) was 59.6 µM (inactive), the GI50 (MDA-N) was > 100 µM (inactive) and the GI50 (U-251) was 50.1 µM (inactive). For the same molecule, the GI50 (OVCAR-5) was > 100 µM (inactive), the GI50 (SW-620) was > 100 µM (inactive) and the GI50 (NCI-H460) was 44.5 µM (inactive). The GI50 (BT-549) was > 100 µM (inactive), the GI50 (UACC-257) was > 100 µM (inactive) and the GI50 (HOP-62) was 23.8 µM (inactive). For the same molecule, the GI50 (MDA-MB-435) was > 100 µM (inactive), the GI50 (IGROV-1) was 61.9 µM (inactive) and the GI50 (NCI-H226) was > 100 µM (inactive).

From ChEMBL document CHEMBL1201862, “PubChem BioAssay data set” (2004)
